“Also recorded” adds a separate entry of the source.

Data set [1] relates to RAW264.7 murine macrophages. The class given is cell-based. As to conditions: RFU, percent increase above vehicle-treated macrophages.
The conditions of data set [2]: kidney injury model; Hye Khan et al. 2016; cited from earlier work.
For data set [3], the system named is B/CMBA.Ov murine ovarian epithelial cells. The data set is described as follows: Annexin V/PI cell death analysis of B/CMBA.Ov cells. The class given is cell-based. Conditions: 5 μM, 24 hours, vs vehicle. The procedure:
Murine (ID8) or human (OVCAR5) ovarian tumor cells were treated with vehicle or a chemotherapeutic agent (e.g., cisplatin, carboplatin, or paclitaxel) as described. B/CMBA.Ov murine ovarian epithelial cells were treated with vehicle or PTUPB (1 or 5 μM) for 24 hours. The floating population (e.g., dead cells or “debris”) was collected, and the remaining adhered cells were trypsinized and combined with the dead cells. RAW264.7 murine macrophages were treated with vehicle or PTUPB (5 μM) for 24 hours. The floating population was collected and the remaining adhered cells were detached using a cell scraper (Corning Inc., Corning, NY) and combined with the dead cells. Cells were counted via hemocytometer, pelleted, and resuspended in PBS at 1×10^6 cells/mL. Next, 2×10^5 cells were stained with annexin V and propidium iodide (PI) according to FITC Annexin V/Dead Cell Apoptosis Kit protocol (Life Technologies, Carlsbad, CA). Staining was assessed using the BD LSR Fortessa (BD Biosciences, San Jose, CA) at the Dana-Farber Cancer Institute Jimmy Fund Flow Cytometry Core, and analyzed using FlowJo software (Tree Star Inc., Ashland, OR). Experiments were performed three times with similar results.

Data set [4] relates to RAW264.7 murine macrophages. The data set is described as follows: Cytokine arrays of RAW264.7 macrophages stimulated with gemcitabine-generated PancOH7 debris. As to conditions: 5 μM, 2 hours pre-treatment. The class given is cell-based. The procedure:
(A) Inflammatory and (B) angiogenic cytokine array of RAW264.7 murine macrophage conditioned media co-cultured with chemotherapy (gemcitabine)-generated murine pancreatic (PancOH7) tumor cell debris and pre-treated with vehicle or PTUPB (5 μM, 2 hours).
Inflammatory (FIG. 15A) and angiogenic (FIG. 15B) cytokine arrays of conditioned media from RAW264.7 macrophages treated with vehicle or PTUPB (5 uM) for 2 hours stimulated with gemcitabine-generated PancOH7 debris are shown in FIGS. 15A and 15B. “Cytokine storm” released by debris-stimulated macrophages is prevented by the dual COX-2/sEH inhibitor PTUPB.

Regarding `NS(=O)(=O)c1ccc(-n2nc(CCCNC(=O)Nc3ccc(C(F)(F)F)cc3)cc2-c2ccccc2)cc1` [PTUPB, 4-(5-phenyl-3-{3-[3-(4-trifluoromethyl-phenyl)-ureido]propyl}-pyrazol-1-yl) benzenesulfonamide], in data set [1], the “macrophage phagocytosis of aflatoxin B1-generated tumor cell debris, RAW264.7” value is recorded as “able to stimulate macrophage phagocytosis; also recorded: stimulates macrophage phagocytosis”. The “release of pro-inflammatory cytokines, such as CCL2/MCP-1” value in data set [2] was “suppressed”. In data set [3], the “induction of cell death of ovarian epithelial cells (B/CMBA.Ov)” value is reported as “did not induce cell death”. The “cytokine storm (inflammatory and angiogenic arrays) released by macrophages stimulated with gemcitabine-generated PancOH7 debris” value in data set [4] was “prevented”.

The values above are taken from US12485107B2, “Methods for the prevention or treatment of cytokine storm” (Beth Israel Deaconess Medical Center, Inc., priority 2019, dated 2025).
